Results published in patent US20120053155A1, “SYSTEM AND METHOD FOR REVERTING ANTIBIOTIC TOLERANCE OF BACTERIAL PERSISTER CELLS” (Syracuse University, priority 2010, published 2012).

What was measured:
P. aeruginosa PAO1 = assay: Effect on persister formation in subcultures (CFU after Cip treatment); type: cell-based, Pseudomonas aeruginosa
Method: A P. aerugionsa PAO1 overnight culture was sub-cultured into 6 tubes with 5 mL fresh LB medium in each with the optical density at 600 nm (OD600) adjusted to 0.05. Each tube contained different concentrations of BF8 (0, 5, 10, 30, 50 and 100 μg/mL) diluted from a 60 mg/mL stock solution. The amount of ethanol was adjusted to be the same for all samples to eliminate solvent effects. After 5 h of incubation, 2 mL sample from each tube was washed and plated on LB agar plates for counting colony forming units (“CFU”); while 3 mL of sample was added with 200 μg/mL Cip and incubated for 3.5 h to count the numbers of cells that remained as persisters.
To compare with the effects of sugars known to promote antibiotic uptake by persisters, the above experiment was repeated using 10 mM glucose and mannitol instead of BF8.

[1] = test system: P. aeruginosa PAO1 persister cells; assay: DNA microarray analysis of gene expression in persister cells; type: cell-based, Pseudomonas aeruginosa; details: 1 μg/mL, 1 h
Method: Persister cells were harvested from a 100 mL 18-h culture of P. aeruginosa PAO1. The isolated persister cells were resuspended in 0.85% NaCl buffer supplemented with 1 μg/mL (3.7 μM) BF8 or with the same amount of ethanol (4.17 μL to eliminate the solvent effect as the control). After incubation at 37° C. for 1 h, cells were collected by centrifugation at 10,000 rpm for 5 minutes at 4° C., transferred to 2 mL pre-cooled microcentrifuge tubes and frozen in an ethanol-dry ice bath. The cell pellets were stored at −80° C. until RNA isolation.
The RNeasy Mini Kit (Qiagen) was used to isolate total RNA. First, the cells were lysed by beating at 4,800 oscillations/min using a mini-bead beater (Biospec Products Inc., Bartlesville, Okla.) with 0.5-mm glass beads, 900 uL RLT buffer and 1% 2-Mercaptoethanol. The total RNA was extracted following the manufacture's protocol with additional wash with RW1 buffer, RPE buffer and DNase treatment (RNase-Free DNase Set, Qiagen). The RNA samples were sent to the DNA microarray Facilities at SUNY Upstate Medical University for microarray hybridization.

[2] = test system: Vibrio harveyi BB886 quorum sensing based on homoserine lactones; assay: Quorum sensing assay (bioluminescence of reporter strain); type: cell-based; details: 10 μg/mL; V. harveyi BB886; bioluminescence at 5 h after inoculation
Method: To understand the effects of BFs on quorum sensing, the reporter strain Vibrio harveyi BB886 was used to monitor the quorum sensing based on homoserine lactones. Briefly, an overnight culture of this strain was diluted by 1:5000 in autoinducer bioassay medium with BFs supplemented at different concentrations. The bioluminescence was measured at 5 h after inoculation.

[3] = test system: P. aeruginosa PAO1 persister cells; assay: Viability of isolated persister cells (CFU); type: cell-based, Pseudomonas aeruginosa; details: up to 2 μg/mL; 0.85% NaCl buffer
Method: (§1) Pseudomonas aeruginosa PAO1 was routinely grown in Luria-Bertani (LB) medium. To isolate persister cells, an overnight culture was incubated for 18 h at 37° C. with shaking at 200 rpm, washed twice with 0.85% NaCl buffer, resuspended in the same buffer and then treated with 200 μg/mL Cip for 3.5 h to lyse the regular cells. The remaining persister cells were then harvested by centrifugation at 13,200 rpm for 3 min at room temperature and then treated with or without furanones as described below.
(§2) To obtain persisters, 3 mL of overnight culture of P. aeruginosa PAO1 was incubated for 3.5 h with 200 μg/mL Cip to kill all regular cells. The remaining persisters were washed twice with and resuspended in 0.85% NaCl buffer with 1:50 dilution. Samples were taken immediately to count the CFUs of persisters. Then, each 5 mL of 0.85% NaCl buffer containing persister cells was treated for 3.5 h with 0, 0.1, 0.5, 1 and 2 μg/mL of BF8. The amount of ethanol was adjusted to be the same for all samples. CFUs of treated persister cells were counted to understand if BF8 has any effects on the viability of persister cells.

[4] = test system: P. aeruginosa PAO1 persister cells; assay: Antibiotic (Cip) susceptibility of isolated persister cells; type: cell-based, Pseudomonas aeruginosa; details: for reverting antibiotic tolerance of persisters: different concentrations, 0.85% NaCl buffer, Cip
Method: as §1, §2
The persister cells treated with BF8 as described above were then treated again with 200 μg/mL Cip to understand if any persister cells restored susceptibility to Cip. The CFUs were counted as described above.

With `CC1=C(Br)/C(=C/Br)OC1=O` [BF8] the “cells persistent (retaining antibiotic tolerance) after treatment” value (P. aeruginosa PAO1; 100 μg/mL BF8, 5 h incubation, 200 μg/mL Cip) was 1.6%, the “reduction of the number of persister cells formed compared to the furanone-free control” value (P. aeruginosa PAO1; 100 μg/mL, 5 h incubation in LB medium, 200 μg/mL Cip 3.5 h) was “up to 100 times” and the “Expression Ratio PA0182” value ([1]; gene PA0182 (3-ketoacyl-(acyl-carrier-protein) reductase)) was 97.1. The “Expression Ratio PA0422” value ([1]; gene PA0422 (hypothetical protein)) was 4.2, the “Expression Ratio PA0565” value ([1]; gene PA0565 (hypothetical protein)) was 12.8 and the “Expression Ratio PA0741” value ([1]; gene PA0741 (hypothetical protein)) was 16.5. For the same compound, the “Expression Ratio PA1127” value ([1]; gene PA1127 (oxidoreductase)) was 3.4, the “Expression Ratio PA1210” value ([1]; gene PA1210 (hypothetical protein)) was 21 and the “Expression Ratio PA1285” value ([1]; gene PA1285 (transcriptional regulator)) was 4.4. The “Expression Ratio PA1334” value ([1]; gene PA1334 (oxidoreductase)) was 227.6, the “Expression Ratio PA1374” value ([1]; gene PA1374 (hypothetical protein)) was 3.4 and the “Expression Ratio PA1470” value ([1]; gene PA1470 (short chain dehydrogenase)) was 4.1. The “Expression Ratio PA2196” value ([1]; gene PA2196 (transcriptional regulator)) was 4.8, the “Expression Ratio PA2378” value ([1]; gene PA2378 (aldehyde dehydrogenase)) was 3.1 and the “Expression Ratio PA2535” value ([1]; gene PA2535 (oxidoreductase)) was 9. For the same compound, the “Expression Ratio PA2575” value ([1]; gene PA2575 (hypothetical protein)) was 9.1, the “Expression Ratio PA2580” value ([1]; gene PA2580 (hypothetical protein)) was 8.3 and the “Expression Ratio PA2610” value ([1]; gene PA2610 (hypothetical protein)) was 7.2. For the same compound, the “Expression Ratio PA2691” value ([1]; gene PA2691 (hypothetical protein)) was 3.7, the “Expression Ratio PA2839” value ([1]; gene PA2839 (hypothetical protein)) was 11 and the “Expression Ratio PA2931” value ([1]; gene PA2931 (CifR)) was 11. For the same compound, the “Expression Ratio PA2932_morB” value ([1]; gene PA2932_morB (morphinone reductase)) was 64.9, the “Expression Ratio PA3133” value ([1]; gene PA3133 (transcriptional regulator)) was 3.5 and the “Expression Ratio PA3223_acpD” value ([1]; gene PA3223_acpD (AzoR3, azoreductase 3)) was 4.8. For the same compound, the “Expression Ratio PA3240” value ([1]; gene PA3240 (hypothetical protein)) was 14.4, the “Expression Ratio PA3523” value ([1]; gene PA3523 (RND efflux membrane fusion protein precursor)) was 9.6 and the “Expression Ratio PA3920” value ([1]; gene PA3920 (metal transporting P-type ATPase)) was 3.9. The “Expression Ratio PA4167” value ([1]; gene PA4167 (2,5-diketo-D-gluconate reductase B)) was 510.6, the “Expression Ratio PA4173” value ([1]; gene PA4173 (hypothetical protein)) was 36.7 and the “Expression Ratio PA4878” value ([1]; gene PA4878 (transcriptional regulator)) was 4.2. The “response of the reporter strain to homoserine lactones” value [2] was “completely eliminated”, the “killing effects on persister cells (viability)” value [3] was “did not exhibit any significant killing effects” and the “persister cells rendered sensitive to Cip” value ([4]; 2 μg/mL, then 200 μg/mL Cip) was “around 90%”. For the same compound, the “susceptibility of persisters to Cip” value ([4]; 0.5, 1 and 2 μg/mL, then 200 μg/mL Cip) was “more susceptible to Cip”.

`CC1=CC(=C(Br)Br)OC1=O` [BF9] was tested, and the “reverting antibiotic tolerance of persisters” value (shortened to “reverting antibiotic tolerance”) [4] was “revert antibiotic tolerance in a dose dependent manner”.

For `O=C1OC(=C(Br)Br)C=C1C(Br)Br` [BF10], the “reverting antibiotic tolerance” value [4] was “revert antibiotic tolerance in a dose dependent manner”.

`O=C1OC(=C(Br)Br)C=C1CBr` [BF11] was tested, and the “reverting antibiotic tolerance” value [4] was “revert antibiotic tolerance in a dose dependent manner”.

In the case of `CC1=C(Br)C(C(Br)Br)OC1=O` (centres unmarked) [BF14], the “reverting antibiotic tolerance” value [4] is reported as “revert antibiotic tolerance in a dose dependent manner”.
